{"source": "patent US11596623B2", "about": "“Methods for treating virus infection or proliferation” (HOWARD UNIVERSITY, priority 2018, dated 2023)", "key": {"[1]": {"target": "T1, recombinant RACK1A protein (Oryza sativa subsp. japonica, UniProt Q6L4F8)", "T1 construct": "His tag (C); made in house; host or cells: E. coli BL21(DE3)", "T1 sequence (Q6L4F8 whole entry)": "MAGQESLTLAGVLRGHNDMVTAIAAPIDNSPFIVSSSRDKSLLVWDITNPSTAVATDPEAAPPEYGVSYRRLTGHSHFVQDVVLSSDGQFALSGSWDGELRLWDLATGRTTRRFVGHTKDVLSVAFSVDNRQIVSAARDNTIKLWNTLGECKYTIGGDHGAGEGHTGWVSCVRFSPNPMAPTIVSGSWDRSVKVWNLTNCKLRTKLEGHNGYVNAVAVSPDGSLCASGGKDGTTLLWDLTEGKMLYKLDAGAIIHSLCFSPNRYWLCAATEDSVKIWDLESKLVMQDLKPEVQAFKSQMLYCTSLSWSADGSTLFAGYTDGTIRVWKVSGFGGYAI", "test": "Surface Plasmon Resonance (SPR) binding assay", "parameters": "species or system rice", "settings": "immobilized recombinant RACK1A, KD50=kd/ka", "procedure": "SD-29 (left panel) and SD-29-12 (right panel) were separately injected three times on the CM5 chip at 0, 1.56 μM, at 3.13 μM, 6.25 μM, 12.5 μM, 25 μM, 50 μM, and 100 μM (top sensor) concentrations (left panel) and at 3.13 μM, 6.25 μM, 12.5 μM, 25 μM, 50 μM, and 100 μM (top sensor) concentrations (right panel).\nTo obtain in vitro confirmation of the binding of the isolated compounds to the purified RACK1 protein, the small compound SD-29 and its structural analog SD29-12 were evaluated for their binding potential with the recombinant RACK1A proteins using the Surface Plasmon Resonance (SPR) chip. SPR experiments were carried out with a Biacore T200 equipped with a CM5 sensor chip. Briefly, recombinant RACK1A cysteine-tagged protein was immobilized on flow cell (FC) 2 in HEPES buffered saline (10 mM Hepes, pH 7.4, and 150 mM NaCl, 3 mM CaCl2)) using a thiol-coupling kit according to the manufacturer's protocol, resulting in immobilization levels of 4580 response units (RU). FC1 was only activated and inactivated and used as a reference. SD-29 stock solution was diluted to a final concentration of 100, 75, 50, 25, 10 μM and 1 μM injected in 10 mM Hepes, 150 mM NaCl, 3 mM CaCl2), 1% DMSO, and 0.5% P20. Each injection was repeated three times for 60 s. […] KD50 is calculated by the equation: KD50=kd/ka; kd—dissociation rate constant, ka—association rate constant. […]"}, "[2]": {"system": "HSV-1", "test": "Plaque formation unit (pfu) assay", "assay_type": "cell-based", "procedure": "The viral plaque assay was performed as previously described [Tang Q, Li L, Ishov A M, Revol V, Epstein A L, Maul G G. Determination of minimum herpes simplex virus type 1 components necessary to localize transcriptionally active DNA to ND10. J Virol. 2003; 77:5821-28.] with slight modifications. The HSV-1 strain 17 was diluted serially in a volume of 1 mL. Then 300 ul of the virus was added onto confluent HEp-2 cell monolayers in 12-well plates; each dilution had 3 wells. After adsorption for 2 h, the medium was removed and the cells were washed twice with serum-free DMEM and overlaid with phenol-free DMEM containing 5% FCS, 0.5% low-melting point agarose (GIBCO), and 1% penicillin-streptomycin. The cells were incubated at 37° C. for 48 hours. Neutral red was added on the agarose to stain the live cells. The plaques were counted and reported as pfu per mL. Mean pfu was determined after averaging the number of pfu from different dilutions. Student's t-tests were used to statistically analyze differences between the groups; a p-value lower than 0.005 was used as the threshold for a significant difference.\nTo assess the efficacy of SD-29 on the HSV-1 proliferation, a plaque assay was performed. We wanted to quantitatively assess whether SD-29 could inhibit viral replication. Because HSV-1 was able to enter cultured HEp-2 cells, we evaluated whether this entry led to productive virus replication.\nIn Table 1, confluent monolayers of HEp-2 cells were infected with serially diluted HSV-1 virus and were fixed and Giemsa stained at 0, 6, 12, and 24 hr post infection. The numbers of plaques were visualized. The number of plaques formed post infection decreased in the presence of SD-29 in a time-dependent manner."}}}
{"compound": "Nn1c(S)nnc1-c1ccc(F)cc1", "note": "[SD-29]", "values": [{"measurement": "Kd", "setting": "[1]", "result": 42, "unit": "µM"}, {"measurement": "Plaque formation unit", "setting": "[2]; 0 hpi", "result": "0 ± 0", "unit": "PFU/mL"}, {"measurement": "Plaque formation unit", "setting": "[2]; 6 hpi", "result": "0 ± 0", "unit": "PFU/mL"}, {"measurement": "Plaque formation unit", "setting": "[2]; 12 hpi", "result": "1 ± 0.08 × 10^2 PFU/mL"}, {"measurement": "Plaque formation unit", "setting": "[2]; 24 hpi", "result": "1.8 ± 0.04 × 10^5 PFU/mL"}, {"measurement": "production of infectious virions", "setting": "[2]; infected HEp-2 cells, versus DMSO", "result": "failed to produce significant infectious virions"}]}
